Laboratory results reported in ChEMBL document CHEMBL4028802, “DILIrank: the largest reference drug list ranked by the risk for developing drug-induced liver injury in humans” (Drug Discov Today, 2016).

Tests used:
Homo sapiens [1] = organism: Homo sapiens; test: Liver toxicity in human assessed as induction of drug-induced liver injury by measuring verified drug-induced liver injury concern status
Homo sapiens [2] = organism: Homo sapiens; test: Liver toxicity in human assessed as induction of drug-induced liver injury by measuring severity class index
For DILI severity class in this document: key of the grades not given here.

| Compound | DILI_Concern (Homo sapiens [1]) | DILI_severity_class (Homo sapiens [2]) |
| --- | --- | --- |
| NCCc1ccc(O)cc1 [TYRAMINE] | No-Dili-Concern | 0 |
| CC(S)C(=O)NCC(=O)O (stereo not given) [TIOPRONIN] | Ambiguous-Dili-Concern | 3 |
| CCCCc1oc2ccc(NS(C)(=O)=O)cc2c1C(=O)c1ccc(OCCCN(CCCC)CCCC)cc1 [DRONEDARONE] | Most-Dili-Concern | 7 |
| NS(=O)(=O)c1cc2c(cc1Cl)NCNS2(=O)=O [HYDROCHLOROTHIAZIDE] | Less-Dili-Concern | 2 |
| SEVELAMER | No-Dili-Concern | 0 |
| CCOC(=O)C1=C(C)NC(C)=C(C(=O)OC)C1c1cccc(Cl)c1Cl (stereo not given) [FELODIPINE] | Less-Dili-Concern | 3 |
| Cc1nnc(NS(=O)(=O)c2ccc(N)cc2)s1 [SULFAMETHIZOLE] | Less-Dili-Concern | 0 |
| CC(C)CC(N(C)C)C1(c2ccc(Cl)cc2)CCC1 (stereo not given) [SIBUTRAMINE] | Less-Dili-Concern | 4 |
| C[C@H]1O[C@H](O[C@H]2[C@H](O)[C@@H](O)[C@@H](O[C@H]3[C@H](O)[C@@H](O)C(O)O[C@@H]3CO)O[C@@H]2CO)[C@H](O)[C@@H](O)[C@@H]1N[C@H]1C=C(CO)[C@@H](O)[C@H](O)[C@H]1O (stereo not given in full) [ACARBOSE] | Most-Dili-Concern | 8 |
| CCN(CC)CCCC(C)Nc1ccnc2cc(Cl)ccc12 (stereo not given) [CHLOROQUINE] | Less-Dili-Concern | 3 |
| CCCN1C[C@H](CSC)C[C@@H]2c3cccc4[nH]cc(c34)C[C@H]21 [PERGOLIDE] | Ambiguous-Dili-Concern | 3 |
| CCCNC(=O)NS(=O)(=O)c1ccc(Cl)cc1 [CHLORPROPAMIDE] | Less-Dili-Concern | 2 |
| C[N+]1(CC2CC2)CC[C@]23c4c5ccc(O)c4O[C@H]2C(=O)CC[C@@]3(O)[C@H]1C5.[Br-] (stereo not given in full) [METHYLNALTREXONE BROMIDE] | No-Dili-Concern | 0 |
| N[C@@H](Cc1cc(I)c(Oc2ccc(O)c(I)c2)c(I)c1)C(=O)O [LIOTHYRONINE] | No-Dili-Concern | 0 |
| O=C1[C@H](CC[C@H](O)c2ccc(F)cc2)[C@@H](c2ccc(O)cc2)N1c1ccc(F)cc1 [EZETIMIBE] | Less-Dili-Concern | 3 |
| CO[C@@]1(NC(=O)Cc2cccs2)C(=O)N2C(C(=O)O)=C(COC(N)=O)CS[C@@H]21 [CEFOXITIN] | Ambiguous-Dili-Concern | 3 |
| CCc1cc(C(N)=S)ccn1 [ETHIONAMIDE] | Less-Dili-Concern | 3 |
| CC1=C(/C=C/C(C)=C/C=C/C(C)=C/CO)C(C)(C)CCC1 [RETINOL] | Less-Dili-Concern | 3 |
| CN1CCN(C2=Nc3cc(Cl)ccc3Nc3ccccc32)CC1 [CLOZAPINE] | Most-Dili-Concern | 5 |
| NCCCC[C@H](N[C@@H](CCc1ccccc1)C(=O)O)C(=O)N1CCC[C@H]1C(=O)O [LISINOPRIL ANHYDROUS] | Less-Dili-Concern | 3 |
| FC(F)(F)C(F)(F)C(F)(F)F | No-Dili-Concern | 0 |
| Cn1c(=O)c2[nH]cnc2n(C)c1=O.O [THEOPHYLLINE] | No-Dili-Concern | 0 |
| COc1cc(C(C)=O)ccc1OCCCN1CCC(c2noc3cc(F)ccc23)CC1 [ILOPERIDONE] | Ambiguous-Dili-Concern | 2 |
| CC1=C(C(=O)O)N2C(=O)[C@@H](NC(=O)[C@H](N)c3ccccc3)[C@H]2SC1 [CEPHALEXIN ANHYDROUS] | Less-Dili-Concern | 4 |
| CC(C(=O)O)c1cccc(C(=O)c2ccccc2)c1 (stereo not given) [KETOPROFEN] | Less-Dili-Concern | 3 |
| Cc1nc2n(c(=O)c1CCN1CCC(c3noc4cc(F)ccc34)CC1)CCCC2O (stereo not given) [PALIPERIDONE] | No-Dili-Concern | 0 |
| C[N+]1(C)CCCC(OC(=O)C(O)(c2ccccc2)c2ccccc2)C1 (stereo not given) [MEPENZOLATE] | No-Dili-Concern | 0 |
| COc1cc(NCc2ccc3nc(N)nc(N)c3c2C)cc(OC)c1OC [TRIMETREXATE] | Ambiguous-Dili-Concern | 3 |
| Nc1nc2ccc(OC(F)(F)F)cc2s1 [RILUZOLE] | Most-Dili-Concern | 8 |
| Cc1ccc(-c2nc3ccc(C)cn3c2CC(=O)N(C)C)cc1 [ZOLPIDEM] | Ambiguous-Dili-Concern | 7 |
